According to paper PMC4809247 (Journal of medicinal chemistry, 2015):

Key:
rat mGlu3 = rat mGlu3 (Rattus norvegicus, UniProt P31422); details: calcium mobilization; average of n ≥ 3
rat mGlu5 = rat mGlu5 (Rattus norvegicus, UniProt P31424); assay: Calcium mobilization mGlu5 assay; type: cell-based; details: for mGlu5 pEC50 (± SEM): calcium mobilization, average of n ≥ 3 (n = 2 where marked)
Chain of rat mGlu5 (P31424 21-1203): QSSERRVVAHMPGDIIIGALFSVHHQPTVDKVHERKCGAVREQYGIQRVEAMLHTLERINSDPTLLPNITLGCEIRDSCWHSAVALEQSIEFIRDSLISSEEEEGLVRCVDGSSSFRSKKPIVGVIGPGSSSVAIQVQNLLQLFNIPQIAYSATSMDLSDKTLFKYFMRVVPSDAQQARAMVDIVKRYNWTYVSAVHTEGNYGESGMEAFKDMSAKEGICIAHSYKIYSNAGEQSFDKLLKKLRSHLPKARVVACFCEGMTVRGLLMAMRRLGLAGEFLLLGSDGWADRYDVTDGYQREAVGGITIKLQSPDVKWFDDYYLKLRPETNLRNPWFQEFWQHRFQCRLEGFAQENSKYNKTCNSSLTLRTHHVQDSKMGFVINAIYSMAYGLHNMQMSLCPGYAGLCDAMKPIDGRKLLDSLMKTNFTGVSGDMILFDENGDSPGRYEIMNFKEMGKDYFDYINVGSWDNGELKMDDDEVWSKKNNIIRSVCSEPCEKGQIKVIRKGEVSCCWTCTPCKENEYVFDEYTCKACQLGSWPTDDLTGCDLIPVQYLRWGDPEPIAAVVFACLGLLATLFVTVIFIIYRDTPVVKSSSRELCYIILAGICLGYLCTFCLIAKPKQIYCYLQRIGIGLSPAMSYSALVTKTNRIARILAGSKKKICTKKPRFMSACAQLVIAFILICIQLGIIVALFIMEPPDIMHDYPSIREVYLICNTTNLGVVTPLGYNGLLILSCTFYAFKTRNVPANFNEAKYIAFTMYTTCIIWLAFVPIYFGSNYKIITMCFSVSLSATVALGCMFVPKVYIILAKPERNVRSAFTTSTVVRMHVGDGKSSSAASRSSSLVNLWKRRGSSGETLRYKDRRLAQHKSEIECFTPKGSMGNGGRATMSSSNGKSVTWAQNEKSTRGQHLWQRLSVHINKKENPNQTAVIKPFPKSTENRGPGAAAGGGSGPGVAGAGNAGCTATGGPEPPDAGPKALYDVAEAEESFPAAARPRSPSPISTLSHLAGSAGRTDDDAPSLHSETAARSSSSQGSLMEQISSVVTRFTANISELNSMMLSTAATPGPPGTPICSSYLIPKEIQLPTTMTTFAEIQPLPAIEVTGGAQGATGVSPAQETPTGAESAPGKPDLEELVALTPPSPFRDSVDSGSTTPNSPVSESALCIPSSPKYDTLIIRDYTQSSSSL

Chain of rat mGlu3 (P31422 23-879): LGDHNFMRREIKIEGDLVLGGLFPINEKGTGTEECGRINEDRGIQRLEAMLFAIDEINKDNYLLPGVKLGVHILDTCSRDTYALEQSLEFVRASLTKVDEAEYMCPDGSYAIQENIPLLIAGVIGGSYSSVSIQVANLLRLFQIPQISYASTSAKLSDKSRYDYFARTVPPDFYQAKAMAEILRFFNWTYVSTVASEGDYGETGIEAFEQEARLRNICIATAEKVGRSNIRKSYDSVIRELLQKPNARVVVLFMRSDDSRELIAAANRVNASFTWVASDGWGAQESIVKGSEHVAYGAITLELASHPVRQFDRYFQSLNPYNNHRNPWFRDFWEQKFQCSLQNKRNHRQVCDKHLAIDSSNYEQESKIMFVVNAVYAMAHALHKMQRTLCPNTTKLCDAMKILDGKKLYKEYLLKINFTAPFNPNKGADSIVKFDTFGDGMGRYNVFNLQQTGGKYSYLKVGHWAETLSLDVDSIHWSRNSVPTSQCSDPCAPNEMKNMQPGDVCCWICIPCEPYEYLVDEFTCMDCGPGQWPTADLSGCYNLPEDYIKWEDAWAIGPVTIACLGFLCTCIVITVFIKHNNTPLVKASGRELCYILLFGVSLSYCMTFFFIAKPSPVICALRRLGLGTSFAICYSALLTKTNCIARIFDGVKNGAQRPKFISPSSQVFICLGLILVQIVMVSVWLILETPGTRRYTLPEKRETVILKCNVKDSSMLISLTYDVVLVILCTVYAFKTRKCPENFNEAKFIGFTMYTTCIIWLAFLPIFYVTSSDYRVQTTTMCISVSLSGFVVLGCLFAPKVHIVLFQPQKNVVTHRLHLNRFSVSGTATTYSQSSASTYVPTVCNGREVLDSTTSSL

Compound	mGlu3 pIC50 (± SEM) (rat mGlu3)	mGlu5 pEC50 (± SEM) (rat mGlu5)	other results
C[C@@H]1CN(c2cccc(Cl)c2)C(=O)c2cc(COc3ccc(Cl)cn3)nn21 [Compound 83]	6.25 ± 0.07	–	–
C[C@@H]1CN(c2ccc(F)cn2)C(=O)c2cc(COc3ccc(F)cn3)nn21 [Compound 72]	6.46 ± 0.07	–	–
C[C@@H]1CN(c2ccc(F)cc2)C(=O)c2cc(COc3ccccc3)nn21 [Compound 18]	6.57 ± 0.15	7.34 ± 0.02	fold preference for mGlu5 vs mGlu3 activity (rat mGlu5): ~6 fold
Cc1ccccc1OCc1cc2n(n1)[C@H](C)CN(c1ccc(F)cc1)C2=O [Compound 26]	–	5.83 ± 0.04	–
COc1cccnc1OCc1cc2n(n1)[C@H](C)CN(c1ccc(F)cc1)C2=O [Compound 43]	–	<4.5	mGlu5: no activity up to the highest concentration tested (rat mGlu5): > 30 µM
C[C@@H]1CN(c2ccc(F)cc2)C(=O)c2cc(COc3ccc(C(F)(F)F)cc3)nn21 [Compound 35]	5.73 ± 0.01	<4.5	–
C[C@@H]1CN(c2ccc(F)cc2)C(=O)c2cc(COc3ccc(C#N)cc3)nn21 [Compound 37]	6.11 ± 0.12	5.71 ± 0.06	–
C[C@@H]1CN(c2ccc(F)cc2)C(=O)c2cc(COc3ccccc3F)nn21 [Compound 22]	6.28 ± 0.20	6.71 ± 0.04	–
C[C@@H]1CN(c2cccnc2)C(=O)c2cc(COc3ccc(F)cn3)nn21 [Compound 70]	6.36 ± 0.13	–	–
C[C@@H]1CN(c2ccc(F)cc2)C(=O)c2cc(COc3ccc(F)cc3F)nn21 [Compound 25]	6.38 ± 0.22	6.51 ± 0.05	–
COc1ccc(N2C[C@@H](C)n3nc(COc4ccc(F)cn4)cc3C2=O)cc1 [Compound 65]	6.49 ± 0.10	–	–
C[C@@H]1CN(c2ccc(F)cc2F)C(=O)c2cc(COc3ccc(Cl)cn3)nn21 [Compound 95]	6.55 ± 0.08	–	–
CCc1ccc(OCc2cc3n(n2)[C@H](C)CN(c2ccc(F)cc2)C3=O)cc1 [Compound 36]	–	5.49 ± 0.03	–
COc1ccc(OCc2cc3n(n2)[C@H](C)CN(c2ccc(F)cc2)C3=O)cc1 [Compound 34]	5.98 ± 0.02	5.87 ± 0.16	–
C[C@@H]1CN(c2cc(F)cc(F)c2)C(=O)c2cc(COc3ccc(Cl)cn3)nn21 [Compound 97]	6.38 ± 0.07	–	–
Cc1ccnc(OCc2cc3n(n2)[C@H](C)CN(c2ccc(F)cc2)C3=O)c1 [Compound 44]	5.68 ± 0.01	–	–
C[C@@H]1CN(c2ccc(F)cc2)C(=O)c2cc(COc3cccc(C(F)(F)F)n3)nn21 [Compound 50]	5.63 ± 0.02	<4.5	mGlu5: no activity up to the highest concentration tested (rat mGlu5): > 30 µM
Cc1ccccc1N1C[C@@H](C)n2nc(COc3ccc(Cl)cn3)cc2C1=O [Compound 85]	6.24 ± 0.18	–	–
C[C@@H]1CN(c2ccccc2F)C(=O)c2cc(COc3ccc(Cl)cn3)nn21 [Compound 80]	6.65 ± 0.04	–	–
C[C@@H]1CN(c2cccc(F)c2)C(=O)c2cc(COc3ccc(Cl)cn3)nn21 [Compound 81]	6.69 ± 0.04	–	–
COc1cccc(N2C[C@@H](C)n3nc(COc4ccc(Cl)cn4)cc3C2=O)c1 [Compound 89]	6.50 ± 0.05	–	–
C[C@@H]1CN(c2ccc(F)cc2)C(=O)c2cc(COc3cc(C(F)(F)F)ccn3)nn21 [Compound 45]	5.78 ± 0.01	–	–
C[C@@H]1CN(c2cc(F)ccc2C#N)C(=O)c2cc(COc3ccc(Cl)cn3)nn21 [Compound 98]	6.28 ± 0.06	<4.5	mGlu5: no activity up to the highest concentration tested (rat mGlu5): > 30 µM
C[C@@H]1CN(c2ccc(F)cc2)C(=O)c2cc(COc3cccc(F)c3)nn21 [Compound 23]	6.11 ± 0.03	7.14 ± 0.02	–

Compound	mGlu3 pIC50 (± SEM) (rat mGlu3)	mGlu5 pEC50 (± SEM) (rat mGlu5)	other results
C[C@@H]1CN(c2ccc(F)cc2)C(=O)c2cc(COc3ncccc3F)nn21 [Compound 41]	5.96 ± 0.02	–	–
Cc1ccc(N2C[C@@H](C)n3nc(COc4ccc(Cl)cn4)cc3C2=O)cc1 [Compound 87]	6.39 ± 0.21	–	–
C[C@@H]1CN(c2ncccc2C#N)C(=O)c2cc(COc3ccc(Cl)cn3)nn21 [Compound 103]	–	<4.5	–
C[C@@H]1CN(c2ccc(F)cc2)C(=O)c2cc(COc3ncccc3C(F)(F)F)nn21 [Compound 42]	–	<4.5	mGlu5: no activity up to the highest concentration tested (rat mGlu5): > 30 µM
C[C@@H]1CN(c2ncccc2F)C(=O)c2cc(COc3ccc(Cl)cn3)nn21 [Compound 102]	6.44 ± 0.03	–	–
COc1ccnc(OCc2cc3n(n2)[C@H](C)CN(c2ccc(F)cc2)C3=O)c1 [Compound 46]	5.43 ± 0.00	–	–
C[C@@H]1CN(c2ccc(C#N)cc2)C(=O)c2cc(COc3ccc(Cl)cn3)nn21 [Compound 93]	6.27 ± 0.05	–	–
C[C@@H]1CN(c2cccc(C#N)c2)C(=O)c2cc(COc3ccc(Cl)cn3)nn21 [Compound 92]	6.08 ± 0.26	–	–
COc1cccc(OCc2cc3n(n2)[C@H](C)CN(c2ccc(F)cc2)C3=O)c1 [Compound 33]	–	5.74 ± 0.04	–
C[C@@H]1CN(c2ccc(F)cc2)C(=O)c2cc(COc3ccc(F)cn3)nn21 [Compound 47]	6.27 ± 0.02	–	–
Cc1ccc(OCc2cc3n(n2)[C@H](C)CN(c2ccc(F)cc2)C3=O)cc1 [Compound 28]	5.92 ± 0.02	5.97 ± 0.04	–
COc1cccc(N2C[C@@H](C)n3nc(COc4ccc(F)cn4)cc3C2=O)c1 [Compound 64]	6.70 ± 0.06	–	–
C[C@@H]1CN(c2ccc(Cl)cc2)C(=O)c2cc(COc3ccc(Cl)cn3)nn21 [Compound 84]	5.91 ± 0.25	–	–
C[C@@H]1CN(c2cccc(F)n2)C(=O)c2cc(COc3ccc(Cl)cn3)nn21 [Compound 105]	6.53 ± 0.08	–	–
C[C@@H]1CN(c2ccc(Cl)cc2)C(=O)c2cc(COc3ccc(F)cn3)nn21 [Compound 59]	6.71 ± 0.13	–	–
C[C@@H]1CN(c2ccccc2Cl)C(=O)c2cc(COc3ccc(Cl)cn3)nn21 [Compound 82]	6.48 ± 0.08	–	–
Cc1cccc(N2C[C@@H](C)n3nc(COc4ccc(Cl)cn4)cc3C2=O)c1 [Compound 86]	6.41 ± 0.05	–	–
C[C@@H]1CN(c2ccccc2C#N)C(=O)c2cc(COc3ccc(Cl)cn3)nn21 [Compound 91]	6.37 ± 0.05	–	–
C[C@@H]1CN(c2ccc(F)cc2)C(=O)c2cc(COc3ccc(OC(F)(F)F)cc3)nn21 [Compound 39]	5.39 ± 0.04	<4.5	mGlu5: no activity up to the highest concentration tested (rat mGlu5): > 30 µM
C[C@@H]1CN(c2ccc(F)cn2)C(=O)c2cc(COc3ccc(Cl)cn3)nn21 [Compound 104]	6.59 ± 0.09	–	–
COc1ccccc1OCc1cc2n(n1)[C@H](C)CN(c1ccc(F)cc1)C2=O [Compound 32]	5.59 ± 0.18	–	–
Cc1cccc(OCc2cc3n(n2)[C@H](C)CN(c2ccc(F)cc2)C3=O)n1 [Compound 49]	5.62 ± 0.02	–	–
C[C@@H]1CN(c2ccc(F)cc2)C(=O)c2cc(COc3ccccc3Cl)nn21 [Compound 29]	6.27 ± 0.18	–	–
